Source: patent US20240148821A1, “PHARMACEUTICAL USE OF CYCLIC PEPTIDE COMPOUND” (CHUGAI SEIYAKU KABUSHIKI KAISHA, priority 2021, published 2024)
Bridge positions count the residues as written; N and C are the ends. Square brackets hold non-standard residues; d marks the D form. Peptide text beside a SMILES is read from it. * marks the point of attachment. hPhe(3,5-F2-4-CF3) = N[C@@H](CCc1cc(F)c(C(F)(F)F)c(F)c1)C(=O)O; hPhe(3-Cl-4-CF3) = N[C@@H](CCc1ccc(C(F)(F)F)c(Cl)c1)C(=O)O; hPhe(3-F,4-CF3) = N[C@@H](CCc1ccc(C(F)(F)F)c(F)c1)C(=O)O; NMePhe(4-CF3) = CN[C@@H](Cc1ccc(C(F)(F)F)cc1)C(=O)O; NMeNle(6-CHF2) = CN[C@@H](CCCCC(F)F)C(=O)O; NMeAla(cPent) = CN[C@@H](CC1CCCC1)C(=O)O; NMeGly(cPent) = CN[C@H](C(=O)O)C1CCCC1; NMeCha = CN[C@@H](CC1CCCCC1)C(=O)O; NMehLeu = CN[C@@H](CCC(C)C)C(=O)O; Hyp = O=C(O)[C@@H]1C[C@@H](O)CN1; NMeChg = CN[C@H](C(=O)O)C1CCCCC1; NMeI = CC[C@H](C)[C@H](NC)C(=O)O; NMeD = CN[C@@H](CC(=O)O)C(=O)O; NMeL = CN[C@@H](CC(C)C)C(=O)O; NMeV = CN[C@H](C(=O)O)C(C)C; Azetidin(1-yl) = C1CN(*)C1; NMeA = CN[C@@H](C)C(=O)O; Piperidide = C1CCN(*)CC1; Pyrrolidide = C1CCN(*)C1; Ac5c = NC1(C(=O)O)CCCC1; Aze = O=C(O)[C@@H]1CCN1; Ac4c = NC1(C(=O)O)CCC1; Sar = CNCC(=O)O

What was measured:
[1] = biological target: protein-protein interaction between Kras and SOS1 (biotin-tagged human Kras loaded with GDP, His-tagged human SOS1) (Homo sapiens (Human), UniProt P01116, G12D); assay: Protein-protein interaction inhibition between Kras and SOS1 (KrasG12D-SOS PPI) using AlphaScreen; type: biochemical; conditions: AlphaScreen; biotin-tagged human Kras loaded with GDP, His-tagged human SOS1; read-out: KRAS G12D-SOS PPI IC50;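 also: kras produced in E. coli, Ni-coupled donor beads and streptavidin acceptor beads, excitation 680 nm with emission detected at 520–620 nm via singlet oxygen transfer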
[2] = system: Human pancreatic cancer cell line AsPC-1 (G12D mutation Kras); assay: AsPC-1 cell growth inhibition (AsPC-1 CGI); type: cell-based; conditions: read-out: AsPC-1 cell growth inhibition, 50% growth inhibitory concentration (IC50 value); 96 hours, CellTiter-Glo, values classified in ranges

| SMILES | IC50 [1] [nM] | IC50 [2] [nM] |
| --- | --- | --- |
| CC[C@H](C)[C@@H]1NC(=O)[C@H](CC(C)C)N(C)C(=O)C[C@@H](C(=O)N2CCCCC2)N(C)C(=O)[C@H](C2CCCCC2)N(C)C(=O)C2(CCCC2)NC(=O)[C@H](CCCCC(F)F)N(C)C(=O)[C@H](CCc2ccc(C(F)(F)F)c(Cl)c2)NC(=O)CN(C)C(=O)[C@H](CC2CCCCC2)N(C)C(=O)CN(C)C(=O)CN(C)C1=O [Compound 796] ([NMeL]I[Sar][Sar][NMeCha][Sar][hPhe(3-Cl-4-CF3)][NMeNle(6-CHF2)][Ac5c][NMeChg][NMeD]-Piperidide; lactam N-11) | 9.3 | > 500 |
| CCO[C@@H]1C[C@H]2C(=O)NC3(CCC3)C(=O)N(C)[C@@H](C3CCCCC3)C(=O)N(C)[C@H](C(=O)N3CCCC3)CC(=O)N(C)[C@@H](CC(C)C)C(=O)N[C@@H]([C@@H](C)CC)C(=O)N(C)CC(=O)N(C)CC(=O)N(C)[C@@H](CC3CCCCC3)C(=O)N(C)CC(=O)N[C@@H](CCc3ccc(C(F)(F)F)c(Cl)c3)C(=O)N2C1 [Compound 1241] ([NMeL]I[Sar][Sar][NMeCha][Sar][hPhe(3-Cl-4-CF3)][Hyp](Et)[Ac4c][NMeChg][NMeD]-Pyrrolidide; lactam N-11) | 0.5 | ≤ 20 |
| CC(C)C[C@H]1C(=O)N[C@@H]([C@@H](C)O)C(=O)N(C)[C@@H](C)C(=O)N2CC[C@H]2C(=O)N(C)[C@@H](CC2CCCCC2)C(=O)N(C)CC(=O)N[C@@H](CCc2ccc(C(F)(F)F)c(Cl)c2)C(=O)N2CCC[C@H]2C(=O)NC2(CCCC2)C(=O)N(C)[C@@H](C(C)C)C(=O)N(C)[C@H](C(=O)N2CCCCC2)CC(=O)N1C [Compound 450] ([NMeL]T[NMeA][Aze][NMeCha][Sar][hPhe(3-Cl-4-CF3)]P[Ac5c][NMeV][NMeD]-Piperidide; lactam N-11) | 6.6 | > 500 |
| CCO[C@@H]1C[C@H]2C(=O)NC3(CCCC3)C(=O)N(C)[C@@H](C3CCCC3)C(=O)N(C)[C@H](C(=O)N3CCC3)CC(=O)N(C)[C@@H](CC(C)C)C(=O)N[C@@H]([C@@H](C)CC)C(=O)N(C)[C@@H](C)C(=O)N3CC[C@H]3C(=O)N(C)[C@@H](CC3CCCCC3)C(=O)N(C)CC(=O)N[C@@H](CCc3ccc(C(F)(F)F)c(Cl)c3)C(=O)N2C1 [Compound 1158] ([NMeL]I[NMeA][Aze][NMeCha][Sar][hPhe(3-Cl-4-CF3)][Hyp](Et)[Ac5c][NMeGly(cPent)][NMeD]-{Azetidin(1-yl)}; lactam N-11) | 0.52 | ≤ 20 |
| CC[C@H](C)[C@@H]1NC(=O)[C@H](C)N(C)C(=O)C[C@@H](C(=O)N2CCCCC2)N(C)C(=O)[C@H](C(C)C)N(C)C(=O)C2(CCCC2)NC(=O)[C@@H]2CCCN2C(=O)[C@H](CCc2ccc(C(F)(F)F)c(F)c2)NC(=O)CN(C)C(=O)[C@H](CC2CCCCC2)N(C)C(=O)[C@@H]2CCN2C(=O)[C@H](C)N(C)C1=O [Compound 1024] ([NMeA]I[NMeA][Aze][NMeCha][Sar][hPhe(3-F,4-CF3)]P[Ac5c][NMeV][NMeD]-Piperidide; lactam N-11) | 1.9 | > 500 |
| CC[C@H](C)[C@@H]1NC(=O)[C@H](C)N(C)C(=O)C[C@@H](C(=O)N2CCCCC2)N(C)C(=O)[C@H](C(C)C)N(C)C(=O)C2(CCCC2)NC(=O)[C@@H]2CCCN2C(=O)[C@H](CCc2ccc(C(F)(F)F)c(Cl)c2)NC(=O)CN(C)C(=O)[C@H](CC2CCCCC2)N(C)C(=O)[C@@H]2CCN2C(=O)[C@H](CC2CCCC2)N(C)C1=O [Compound 1566] ([NMeA]I[NMeAla(cPent)][Aze][NMeCha][Sar][hPhe(3-Cl-4-CF3)]P[Ac5c][NMeV][NMeD]-Piperidide; lactam N-11) | 20 | > 500 |
| CCO[C@@H]1C[C@H]2C(=O)NC3(CCC3)C(=O)N(C)[C@@H](C3CCCCC3)C(=O)N(C)[C@H](C(=O)N3CCCC3)CC(=O)N(C)[C@@H](CC(C)C)C(=O)N[C@@H]([C@@H](C)CC)C(=O)N(C)CC(=O)N(C)CC(=O)N(C)[C@@H](CC3CCCCC3)C(=O)N(C)CC(=O)N[C@@H](CCc3cc(F)c(C(F)(F)F)c(F)c3)C(=O)N2C1 [Compound 1366] ([NMeL]I[Sar][Sar][NMeCha][Sar][hPhe(3,5-F2-4-CF3)][Hyp](Et)[Ac4c][NMeChg][NMeD]-Pyrrolidide; lactam N-11) | 0.63 | ≤ 20 |
| CC[C@H](C)[C@@H]1NC(=O)[C@H](CCC(C)C)N(C)C(=O)C[C@@H](C(=O)N2CCCC2)N(C)C(=O)[C@H]([C@@H](C)CC)N(C)C(=O)C2(CCCC2)NC(=O)[C@@H]2CCCN2C(=O)[C@H](CCc2ccc(C(F)(F)F)c(Cl)c2)NC(=O)CN(C)C(=O)[C@H](Cc2ccc(C(F)(F)F)cc2)N(C)C(=O)[C@@H]2CCN2C(=O)[C@H](C)NC1=O [Compound 1310] ([NMehLeu]IA[Aze][NMePhe(4-CF3)][Sar][hPhe(3-Cl-4-CF3)]P[Ac5c][NMeI][NMeD]-Pyrrolidide; lactam N-11) | 0.87 | ≤ 20 |
